Assay results: ChEMBL document CHEMBL4665887, “Identification, Structure-Activity Relationships of Marine-Derived Indolocarbazoles, and a Dual PKCθ/δ Inhibitor with Potent Antipancreatic Cancer Efficacy” (J Med Chem, 2020)

target: Protein kinase C theta type (Homo sapiens, UniProt Q04759); experiment: Inhibition of PKCtheta (unknown origin) by HTRF assay
Sequence (Q04759 whole entry): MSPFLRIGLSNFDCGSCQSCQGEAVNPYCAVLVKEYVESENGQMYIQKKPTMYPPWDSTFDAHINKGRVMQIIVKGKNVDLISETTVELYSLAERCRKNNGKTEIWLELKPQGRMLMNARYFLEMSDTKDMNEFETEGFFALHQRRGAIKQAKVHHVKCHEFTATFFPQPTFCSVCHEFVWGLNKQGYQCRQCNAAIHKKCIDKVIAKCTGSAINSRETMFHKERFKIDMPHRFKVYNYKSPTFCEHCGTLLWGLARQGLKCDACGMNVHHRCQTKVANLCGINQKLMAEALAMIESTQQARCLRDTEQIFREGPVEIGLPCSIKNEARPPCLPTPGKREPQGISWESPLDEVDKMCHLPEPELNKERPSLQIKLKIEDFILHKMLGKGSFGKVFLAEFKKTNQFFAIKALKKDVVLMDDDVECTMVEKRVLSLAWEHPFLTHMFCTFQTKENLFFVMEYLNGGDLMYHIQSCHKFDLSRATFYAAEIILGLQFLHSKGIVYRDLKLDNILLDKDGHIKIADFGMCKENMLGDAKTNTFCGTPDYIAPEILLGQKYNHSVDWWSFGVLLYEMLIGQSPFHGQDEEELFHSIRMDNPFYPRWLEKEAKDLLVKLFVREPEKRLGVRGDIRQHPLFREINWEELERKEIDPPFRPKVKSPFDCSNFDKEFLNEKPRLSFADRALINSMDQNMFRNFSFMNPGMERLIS

SMILES	IC50
CO[C@@H]1[C@H](N(C)C(C)=O)C[C@H]2O[C@]1(C)n1c3ccccc3c3c4c(c5c6ccccc6n2c5c31)C(=O)NC4	170 nM
CC(=O)N[C@@H]1C[C@H](n2c3ccccc3c3c4c(c5c6cc(O)ccc6[nH]c5c32)CNC4=O)O[C@@H](C)[C@@H]1O	> 2500 nM
C[C@]12O[C@H](C[C@@H](O)[C@H]1O)n1c3ccccc3c3c4c(c5c6ccccc6n2c5c31)CNC4=O	600 nM
C[C@@H]1O[C@@H](n2c3ccccc3c3c4c(c5c6ccccc6[nH]c5c32)CNC4=O)C[C@@H](NC=O)[C@H]1O	> 2500 nM
CO[C@@H]1[C@H](N)C[C@H]2O[C@]1(C)n1c3ccccc3c3c4c(c5c6ccccc6n2c5c31)C(=O)NC4=O	36 nM
CN[C@]1(C(=O)OC)C[C@H]2O[C@]1(C)n1c3ccccc3c3c4c(c5c6ccccc6n2c5c31)C(=O)NC4	> 2500 nM
CO[C@@H]1C(C)(O)O[C@@H]2C[C@@]1(OC)n1c3ccccc3c3c4c(c5c6ccccc6n2c5c31)C(=O)NC4 (some centres not stated)	> 2500 nM
CO[C@H]1NC(=O)c2c1c1c3ccccc3[nH]c1c1c2c2ccccc2n1[C@@H]1O[C@@H](C)[C@H](O)[C@@H](O)[C@H]1O	> 2500 nM
CN1Cc2c(c3c4ccccc4[nH]c3c3[nH]c4ccccc4c23)C1=O	> 2500 nM
CC(=O)N[C@@H]1C[C@H](n2c3ccc(O)cc3c3c4c(c5c6ccccc6[nH]c5c32)CNC4=O)O[C@@H](C)[C@@H]1O	280 nM
O=C1NCc2c1c1c3ccccc3[nH]c1c1[nH]c3ccccc3c21 [STAUROSPORINONE]	> 2500 nM
CO[C@@H]1[C@H](N(C)C(N)=O)C[C@H]2O[C@]1(C)n1c3ccccc3c3c4c(c5c6ccccc6n2c5c31)C(=O)NC4	400 nM
COC(=O)[C@H]1C[C@H]2O[C@]1(C)n1c3ccccc3c3c4c(c5c6ccccc6n2c5c31)C(=O)NC4	1680 nM
C[C@@H]1O[C@@H]2C[C@](O)([C@H]1O)n1c3ccccc3c3c4c(c5c6ccccc6n2c5c31)C(=O)NC4	1910 nM
CO[C@@H]1[C@H](O)[C@H](O)[C@H](C)O[C@H]1n1c2ccccc2c2c3c(c4c5ccccc5[nH]c4c21)CNC3=O	9430 nM
O=C1NCc2c1c1c3ccccc3[nH]c1c1[nH]c3ccc(O)cc3c21	> 2500 nM
C[C@@H]1O[C@@H](n2c3ccc(O)cc3c3c4c(c5c6ccccc6[nH]c5c32)CNC4=O)C[C@@H](N)[C@H]1O	> 2500 nM
CO[C@@H]1[C@@H](O)C[C@H]2O[C@]1(C)n1c3ccccc3c3c4c(c5c6ccccc6n2c5c31)C(=O)NC4	480 nM
CO[C@@H]1[C@@H](O)[C@@H](O)[C@H]2O[C@]1(C)n1c3ccccc3c3c4c(c5c6ccccc6n2c5c31)C(=O)N[C@H]4OC	> 2500 nM
COC1=C(C)O[C@@H]2C[C@@]1(OC)n1c3ccccc3c3c4c(c5c6ccccc6n2c5c31)C(=O)NC4	370 nM
CO[C@@H]1C(=O)C[C@H]2O[C@]1(C)n1c3ccccc3c3c4c(c5c6ccccc6n2c5c31)C(=O)NC4	> 2500 nM
C[C@@H]1O[C@@H](n2c3ccccc3c3c4c(c5c6ccccc6[nH]c5c32)[C@H](O)NC4=O)[C@H](O)[C@H](O)[C@H]1O	> 2500 nM
C[C@@H]1O[C@@H]2C[C@](O)([C@H]1O)n1c3ccccc3c3c4c(c5c6cc(O)ccc6n2c5c31)C(=O)NC4	> 2500 nM
C[C@@H]1O[C@@H](n2c3ccccc3c3c4c(c5c6ccccc6[nH]c5c32)C(=O)NC4=O)C[C@@H](NC=O)[C@H]1O	4760 nM
CNn1c2ccccc2c2c3c(c4c5ccccc5[nH]c4c21)C(=O)NC3	> 2500 nM
CO[C@@H]1[C@H](O)C[C@H]2O[C@]1(C)n1c3ccccc3c3c4c(c5c6ccccc6n2c5c31)C(=O)NC4	1300 nM

SMILES	IC50
CNC(=O)C[C@H]1O[C@@](C)(C(=O)OC)n2c3ccccc3c3c4c(c5c6ccccc6n1c5c32)C(=O)NC4	> 2500 nM
C[C@@H]1O[C@@H](n2c3ccccc3c3c4c(c5c6ccccc6[nH]c5c32)CNC4=O)[C@H](O)[C@H](O)[C@H]1O	> 2500 nM
C[C@]12O[C@H](C[C@]1(O)C(=O)O)n1c3ccccc3c3c4c(c5c6ccccc6n2c5c31)C(=O)NC4=O	1860 nM
C[C@H]1O[C@@H]2C[C@](O)([C@@H]1O)n1c3ccccc3c3c4c(c5c6ccccc6n2c5c31)C(=O)NC4	> 2500 nM
COC(=O)c1cccc2c1NC1(C[C@H]3O[C@]1(C)n1c4ccccc4c4c5c(c6c7ccccc7n3c6c41)C(=O)NC5)C(=O)O2 (some centres not stated)	> 2500 nM
CO[C@@H]1[C@H](NC(=O)C(=O)c2c[nH]c3ccccc23)C[C@H]2O[C@]1(C)n1c3ccccc3c3c4c(c5c6ccccc6n2c5c31)C(=O)NC4	1790 nM
CC(=O)N[C@@H]1C[C@H](n2c3ccccc3c3c4c(c5c6ccccc6[nH]c5c32)C(=O)NC4=O)O[C@@H](C)[C@@H]1O	> 2500 nM
COc1cc(/C=C(/C(N)=O)n2c3ccccc3c3c4c(c5c6ccccc6[nH]c5c32)CNC4=O)ccc1O	> 2500 nM
CO[C@@H]1[C@H](N(C)C=O)C[C@H]2O[C@]1(C)n1c3ccccc3c3c4c(c5c6ccccc6n2c5c31)C(=O)NC4	250 nM
CC(=O)N[C@@H]1C[C@H](n2c3ccccc3c3c4c(c5c6ccccc6[nH]c5c32)CNC4=O)O[C@@H](C)[C@@H]1O	> 2500 nM
C[C@@H]1O[C@@H](n2c3ccccc3c3c4c(c5c6ccccc6[nH]c5c32)CNC4=O)C[C@@H](N)[C@H]1O	260 nM
COC(=O)[C@@]1(OC)C[C@H]2O[C@]1(C)n1c3ccccc3c3c4c(c5c6ccccc6n2c5c31)C(=O)NC4	520 nM
CO[C@@H]1[C@H](NC(C)=O)C[C@H]2O[C@]1(C)n1c3ccccc3c3c4c(c5c6ccccc6n2c5c31)C(=O)NC4	38 nM
CO[C@@H]1[C@@H](O)[C@@H](O)[C@H]2O[C@]1(C)n1c3ccccc3c3c4c(c5c6ccccc6n2c5c31)C(=O)N[C@@H]4O	> 2500 nM
C[C@@H]1O[C@@H](n2c3ccc(O)cc3c3c4c(c5c6ccccc6[nH]c5c32)CNC4=O)[C@H](O)[C@H](O)[C@H]1O	> 2500 nM
C[C@@H]1O[C@@H](n2c3ccccc3c3c4c(c5c6ccccc6[nH]c5c32)C(=O)NC4=O)[C@H](O)[C@H](O)[C@H]1O	> 2500 nM
CO[C@H]1NC(=O)c2c1c1c3ccccc3n3c1c1c2c2ccccc2n1[C@@H]1O[C@@]3(C)[C@H](OC)[C@@H](O)[C@H]1O	890 nM
CN[C@@H]1C[C@H]2O[C@@](C)([C@@H]1OC)n1c3ccccc3c3c4c(c5c6ccccc6n2c5c31)C(=O)NC4=O (stereo in doubt; 14)	17 nM
C[C@@H]1O[C@@H](n2c3ccccc3c3c4c(c5c6ccccc6[nH]c5c32)C(=O)NC4=O)C[C@@H](N)[C@H]1O	1180 nM
O=C1NC(O)c2c1c1c3ccccc3[nH]c1c1[nH]c3ccccc3c21 (configuration not stated)	> 2500 nM
C[C@H]1NC(=O)c2c1c1c3ccccc3[nH]c1c1[nH]c3ccccc3c21	> 2500 nM
O=C1NC(=O)c2c1c1c3ccccc3[nH]c1c1[nH]c3ccccc3c21 [STAUROSPORINE AGLYCON]	> 2500 nM
CO[C@@H]1[C@H](N(C)C(C)=O)C[C@H]2O[C@]1(C)n1c3ccccc3c3c4c(c5c6ccccc6n2c5c31)C(=O)NC4=O	50 nM
CO[C@@H]1[C@H](NC=O)C[C@H]2O[C@]1(C)n1c3ccccc3c3c4c(c5c6ccccc6n2c5c31)C(=O)NC4	> 2500 nM
CO[C@H]1C(=O)C[C@H]2O[C@]1(C)n1c3ccccc3c3c4c(c5c6ccccc6n2c5c31)C(=O)NC4	560 nM
CO[C@H]1[C@@H](N2CC[C@@H](O)C2=O)C[C@@H]2O[C@@]1(C)n1c3ccccc3c3c4c(c5c6ccccc6n2c5c31)C(=O)NC4	170 nM
